Values joined by “and” are separate entries in the source; they are usually repeats but may differ in a detail not shown here. Equal entries are not always repeated.
Tests used:
[1] = Liquid
[2] = xn = mol fraction of the nth substance listed; settings: Liquid, x2 = 0

C1CCCCC1 [cyclohexane]
mass density [kg/m3], [1]
Settings | 101.33 kPa | 5000 kPa | 10000 kPa | 20000 kPa | 30000 kPa | 40000 kPa
293.15 K | 778.8 | 782.8 | 786.6 | 793.9 | 801 | 807.8
298.15 K | 773.9 | 778.3 | 782.3 | 789.8 | 796.7 | 802.9
303.15 K | 769.3 | 773.6 | 777.8 | 785.7 | 792.8 | 799.2
308.15 K | 764.5 | 769 | 773.4 | 781.5 | 788.8 | 795.5
313.15 K | 759.7 | 764.5 | 768.9 | 777.4 | 784.8 | 791.8

C1CCCCC1 [cyclohexane] + COC(=O)OC
mass density [kg/m3], [2]
Settings | 100 kPa | 5000 kPa | 10000 kPa | 20000 kPa | 30000 kPa | 40000 kPa
293.15 K | 778.8 | 782.8 | 786.6 | 793.9 | 801 | 807.8
298.15 K | 773.9 | 778.3 | 782.3 | 789.8 | 796.7 | 802.9
303.15 K | 769.3 | 773.6 | 777.8 | 785.7 | 792.8 | 799.2
308.15 K | 764.5 | 769 | 773.4 | 781.5 | 788.8 | 795.5
313.15 K | 759.7 | 764.5 | 768.9 | 777.4 | 784.8 | 791.8

COC(=O)OC [dimethyl carbonate]
mass density, [1]
Settings | 101.33 kPa | 5000 kPa | 10000 kPa | 20000 kPa | 30000 kPa | 40000 kPa
293.15 K | 1069.8 kg/m3 | 1074.4 kg/m3 | 1078.6 kg/m3 | 1086.9 kg/m3 | 1094.5 kg/m3 | 1101.9 kg/m3
298.15 K | 1063.2 kg/m3 | 1068 kg/m3 | 1072.4 kg/m3 | 1080.8 kg/m3 | 1088.7 kg/m3 | 1096.2 kg/m3
303.15 K | 1056.5 kg/m3 | 1061.3 kg/m3 | 1066 kg/m3 and 1065 kg/m3 | 1074.7 kg/m3 | 1082.9 kg/m3 | 1090.4 kg/m3
308.15 K | 1049.8 kg/m3 | 1054.6 kg/m3 | 1059.4 kg/m3 | 1068.5 kg/m3 | 1077 kg/m3 | 1084.8 kg/m3
313.15 K | 1043 kg/m3 | 1048.1 kg/m3 | 1053 kg/m3 | 1062.3 kg/m3 | 1071 kg/m3 | 1079 kg/m3
